From patent US20160160232A1, “ALS INHIBITOR HERBICIDE TOLERANT MUTANT PLANTS” (priority 2013, published 2016)

Key:
[1] = system: oilseed rape homozygous for HETO133 and HETO134; assay: Further field trial, phytotoxicity (Table 3); type: in vivo, Brassica napus; conditions: g ai/ha: IMAZAMOX 40, BISPYRIBAC-SODIUM 50, PROPOXYCARBAZONE-SODIUM 70, MESOSULFURON-METHYL 60, PYROXSULAM 12.5 with CLOQUINTOCET-MEXYL 37.5, each with RAPESEED OIL METHYLATED 366.5
Procedure: (§1) In a further field trial, seeds of spring oilseed rape comprising HETO133 and HETO134, and wild type (WT) seeds were sown in a field. For the untreated plants, biomass was determined at 9, 16 and 24 days after application (DAA) as compared to a control variety. For the treated plants, phytotoxicity was assessed at 9, 16 and 24 days after application (DAA) according to a scale from 0 to 100%. For both wild-type and HETO133-HETO134, no thinning was observed.

[2] = system: wild-type (WT) oilseed rape; assay: Further field trial, phytotoxicity (Table 3); type: in vivo, Brassica napus; conditions: g ai/ha: IMAZAMOX 40, BISPYRIBAC-SODIUM 50, PROPOXYCARBAZONE-SODIUM 70, MESOSULFURON-METHYL 60, PYROXSULAM 12.5 with CLOQUINTOCET-MEXYL 37.5, each with RAPESEED OIL METHYLATED 366.5
Procedure: as §1

[3] = system: oilseed rape comprising a P197S mutation on ALS I and a W574L mutation on ALS III (P197S-W574L); assay: Field trial, visible phytotoxicity (Table 2); type: in vivo, Brassica napus; conditions: applied at BBCH 14, 200 L/ha water, g ai/ha: Foramsulfuron 25, TCM 15, Iodosulfuron 7, Mesosulfuron 60, Amidosulfuron 30, Ethoxysulfuron 60, Imazamox 40, Metosulam 30, Bispyribac 50, Nicosulfuron 60, Metsulfuron 8, Propoxycarbazone 70, Pyroxsulam 50, Tribenuron 30, Rimsulfuron 12.5, Flucarbazone 40, Thifensulfuron 7.5
Source text: (§2) Seeds of spring oilseed rape homozygous for HETO133 and HETO134 were sown in a field according to typical practical agricultural methods. The registered spring oilseed rape variety ABILITY, the wild-type segregant (WTS), and plants comprising a P197S mutation on ALS I and a W574L mutation on ALS III (P197S-W574L) served as a comparison. All plants were cultivated up to BBCH stage 14 (four true leaves of the oilseed rape plants). Afterwards, the herbicides mentioned in table 2 have been applied to the oilseed rape plants by using specific spray equipment for small plot applications. The water amount used was 200 L/ha.

[4] = system: oilseed rape homozygous for HETO133 and HETO134; assay: Field trial, visible phytotoxicity (Table 2); type: in vivo, Brassica napus; conditions: applied at BBCH 14, 200 L/ha water, g ai/ha: Foramsulfuron 25, TCM 15, Iodosulfuron 7, Mesosulfuron 60, Amidosulfuron 30, Ethoxysulfuron 60, Imazamox 40, Metosulam 30, Bispyribac 50, Nicosulfuron 60, Metsulfuron 8, Propoxycarbazone 70, Pyroxsulam 50, Tribenuron 30, Rimsulfuron 12.5, Flucarbazone 40, Thifensulfuron 7.5
Source text: as §2

[5] = system: wild-type segregant (WTS) oilseed rape; assay: Field trial, visible phytotoxicity (Table 2); type: in vivo, Brassica napus; conditions: applied at BBCH 14, 200 L/ha water, g ai/ha: Foramsulfuron 25, TCM 15, Iodosulfuron 7, Mesosulfuron 60, Amidosulfuron 30, Ethoxysulfuron 60, Imazamox 40, Metosulam 30, Bispyribac 50, Nicosulfuron 60, Metsulfuron 8, Propoxycarbazone 70, Pyroxsulam 50, Tribenuron 30, Rimsulfuron 12.5, Flucarbazone 40, Thifensulfuron 7.5
Source text: as §2

[6] = system: spring oilseed rape variety ABILITY; assay: Field trial, visible phytotoxicity (Table 2); type: in vivo, Brassica napus; conditions: applied at BBCH 14, 200 L/ha water, g ai/ha: Foramsulfuron 25, TCM 15, Iodosulfuron 7, Mesosulfuron 60, Amidosulfuron 30, Ethoxysulfuron 60, Imazamox 40, Metosulam 30, Bispyribac 50, Nicosulfuron 60, Metsulfuron 8, Propoxycarbazone 70, Pyroxsulam 50, Tribenuron 30, Rimsulfuron 12.5, Flucarbazone 40, Thifensulfuron 7.5
Source text: as §2

[7] = system: Hypocotyl derived callus (WT tissues); assay: Callus selection on Foramsulfuron containing medium; type: cell-based, Brassica napus
Procedure: Five day old seedlings were used for the preparation of hypocotyl segments 7-10 mm in length. Hypocotyl segments were transferred to 14 cm Petri plates containing 75 ml of M-338 [H76] callus induction medium (25 explants/plate). M-338 [H76] medium is MS salts and vitamins (Murashige and Skoog, 1962), 20 g/l sucrose, 0.5 g/l MES, 0.5 g/l adenine sulphate, 5 mg/l silver nitrate, 0.5 mg/l 2,4-D, 0.2 mg/l kinetin and solidified with 5.5 g/l agarose (pH 5.7). Dishes were sealed and cultured at 24° C. with standard light conditions (16 h/day). After 3 weeks, calli developing at the ends of the explants were transferred to fresh M-338 [H76] plates (25 calli/plate). Calli were subcultured to fresh medium every 3 weeks (larger calli cut into two pieces).
Hypocotyl derived callus (9 weeks old) was used for the selection of herbicide resistant mutants. Small pieces of callus were plated on M-338 [H76] medium containing 25 nM of the ALS inhibitor Foramsulfuron (CAS RN 173159-57-4). […] Dishes were cultured at 24° C. with standard light conditions (16 h/day). After 3 weeks, the calli were divided into 2 pieces each and replated on M-338 [H76] medium containing 50 nM Foramsulfuron. […]

Compound	Percentage phytotoxicity HETO133-HETO134 9 DAA [1]	Percentage phytotoxicity HETO133-HETO134 16 DAA [1]	Percentage phytotoxicity HETO133-HETO134 24 DAA [1]	Percentage phytotoxicity WT 9 DAA [2]	Percentage phytotoxicity WT 16 DAA [2]	Percentage phytotoxicity WT 24 DAA [2]	Percentage phytotoxicity P197S-W574L 7 DAA [3]	Percentage phytotoxicity P197S-W574L 14 DAA [3]	Percentage phytotoxicity P197S-W574L 23 DAA [3]	Percentage phytotoxicity HETO133-HETO134 7 DAA [4]	Percentage phytotoxicity HETO133-HETO134 14 DAA [4]	Percentage phytotoxicity HETO133-HETO134 23 DAA [4]	Percentage phytotoxicity WTS 7 DAA [5]	Percentage phytotoxicity WTS 14 DAA [5]	Percentage phytotoxicity WTS 23 DAA [5]	Percentage phytotoxicity ABILITY 7 DAA [6]	Percentage phytotoxicity standard 14 DAA [6]	Percentage phytotoxicity standard 23 DAA [6]	effect on callus growth ([7]; 25 nM Foramsulfuron in M-338 [H76] medium, starting concentration)	effect on WT tissues ([7]; 250 nM Foramsulfuron in M-338 [H76] medium)
COc1cc(OC)nc(Oc2cccc(Oc3nc(OC)cc(OC)n3)c2C(=O)O)n1 [Bispyribac, bispyribac-sodium]	56.7%	88.3%	92.7%	76.7%	98.3%	100%	–	–	–	–	–	–	–	–	–	–	–	–	–	–
COC(=O)c1ccc(CNS(C)(=O)=O)cc1S(=O)(=O)NC(=O)Nc1nc(OC)cc(OC)n1 [Mesosulfuron, mesosulfuron-methyl]	11.7%	13.3%	3.3%	76.7%	98%	96%	40%	40%	45%	33%	38%	35%	85%	98%	99%	85%	98%	99%	–	–
COC(=O)c1ccccc1S(=O)(=O)NC(=O)Nc1nc(C)nc(OC)n1 [Metsulfuron, metsulfuron-methyl]	–	–	–	–	–	–	45%	50%	62%	50%	63%	78%	86%	98%	99%	86%	98%	99%	–	–
COc1nn(C(=O)[N-]S(=O)(=O)c2ccccc2OC(F)(F)F)c(=O)n1C.[Na+] [Flucarbazone, flucarbazone-sodium]	–	–	–	–	–	–	10%	6%	10%	0%	0%	0%	85%	98%	99%	85%	98%	99%	–	–
COCc1cnc(C2=NC(C)(C(C)C)C(=O)N2)c(C(=O)O)c1 (centres unmarked) [Imazamox, imazamox]	6.7%	10%	0%	73.3%	98%	99%	–	–	–	–	–	–	–	–	–	–	–	–	–	–
COc1cc(OC)n2nc(NS(=O)(=O)c3c(C(F)(F)F)ccnc3OC)nc2n1 [Pyroxsulam, pyroxsulam]	13.3%	17%	15%	76.7%	98%	98%	15%	16%	18%	0%	0%	5%	83%	98%	99%	83%	98%	99%	–	–
CCCOc1nn(C(=O)[N-]S(=O)(=O)c2ccccc2C(=O)OC)c(=O)n1C.[Na+] [Propoxycarbazone, propoxycarbazone-sodium]	53.3%	82.7%	76.7%	76.7%	97%	97.7%	47%	52%	47%	57%	72%	83%	86%	98%	99%	86%	98%	99%	–	–
COC(=O)c1csc(C)c1S(=O)(=O)NC(=O)n1nc(OC)n(C)c1=O [TCM, thiencarbazone-methyl]	–	–	–	–	–	–	16%	13%	17%	0%	0%	3%	85%	98%	99%	85%	98%	99%	–	–
COc1cc(OC)nc(NC(=O)NS(=O)(=O)c2cc(NC=O)ccc2C(=O)N(C)C)n1 [Foramsulfuron, foramsulfuron]	–	–	–	–	–	–	–	–	–	–	–	–	–	–	–	–	–	–	partially inhibitory to callus growth but not lethal	clearly inhibitory to WT tissues
